Among the data in ChEMBL document CHEMBL1133618, “Synthesis and structure-activity relationships of 7-substituted 3-(2, 6-dichlorophenyl)-1,6-naphthyridin-2(1H)-ones as selective inhibitors of pp60(c-src)” (J Med Chem, 2000) are IC50 values, retold here.

The target of test [1] is Fibroblast growth factor receptor 1 (Homo sapiens, UniProt P11362). The test can be described thus: Inhibitory activity against fibroblast growth factor receptor 1.
For test [2], the target named is Platelet-derived growth factor receptor beta (Mus musculus, UniProt P05622). Nature of the test: Inhibitory activity against mouse PDGF beta receptor tyrosine kinase.
Chain of Platelet-derived growth factor receptor beta (P05622 whole entry): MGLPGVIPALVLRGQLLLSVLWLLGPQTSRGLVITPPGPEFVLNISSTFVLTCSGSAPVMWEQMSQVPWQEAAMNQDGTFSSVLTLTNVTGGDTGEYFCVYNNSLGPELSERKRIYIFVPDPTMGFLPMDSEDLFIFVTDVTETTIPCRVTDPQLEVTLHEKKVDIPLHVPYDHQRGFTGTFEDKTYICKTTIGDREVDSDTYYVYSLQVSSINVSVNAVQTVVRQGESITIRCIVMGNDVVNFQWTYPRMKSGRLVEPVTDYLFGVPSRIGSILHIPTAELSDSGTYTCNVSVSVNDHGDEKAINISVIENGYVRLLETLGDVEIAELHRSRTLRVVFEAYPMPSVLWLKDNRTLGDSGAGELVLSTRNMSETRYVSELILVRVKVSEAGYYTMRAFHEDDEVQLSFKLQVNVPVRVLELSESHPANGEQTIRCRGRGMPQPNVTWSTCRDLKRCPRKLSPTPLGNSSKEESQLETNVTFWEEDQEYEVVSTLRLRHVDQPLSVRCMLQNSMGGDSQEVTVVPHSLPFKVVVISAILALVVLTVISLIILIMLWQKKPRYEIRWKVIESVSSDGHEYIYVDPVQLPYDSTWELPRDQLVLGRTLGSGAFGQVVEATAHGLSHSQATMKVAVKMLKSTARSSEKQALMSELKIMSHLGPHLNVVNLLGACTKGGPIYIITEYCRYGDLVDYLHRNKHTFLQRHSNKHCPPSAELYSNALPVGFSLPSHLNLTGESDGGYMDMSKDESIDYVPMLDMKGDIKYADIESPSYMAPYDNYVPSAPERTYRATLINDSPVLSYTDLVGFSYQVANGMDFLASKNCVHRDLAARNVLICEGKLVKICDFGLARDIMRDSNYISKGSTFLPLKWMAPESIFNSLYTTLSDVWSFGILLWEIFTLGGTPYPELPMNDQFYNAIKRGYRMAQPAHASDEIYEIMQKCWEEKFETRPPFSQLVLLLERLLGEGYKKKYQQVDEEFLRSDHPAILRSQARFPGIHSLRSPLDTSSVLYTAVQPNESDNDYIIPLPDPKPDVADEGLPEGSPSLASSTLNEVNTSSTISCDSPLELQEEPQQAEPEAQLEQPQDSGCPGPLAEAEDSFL
The subject of test [3] is HT-29. Nature of the test: Inhibitory activity against HT-29 human colon adenocarcinoma cells was determined. The format is functional, cell-based.
The test system of test [4] is SW-620. The test can be described thus: Inhibitory activity against SW-620 human colon adenocarcinoma cells was determined. The format is functional, cell-based.
In test [5] the test system is HCT-8. Nature of the test: Inhibitory activity against HCT-8 human colon adenocarcinoma cells was determined. The class given is functional, cell-based.
The target of test [6] is Proto-oncogene tyrosine-protein kinase Src (Gallus gallus) (UniProt P00523). Nature of the test: Inhibitory activity against avian c-Src tyrosine kinase was determined.

Chain of Fibroblast growth factor receptor 1 (P11362 whole entry): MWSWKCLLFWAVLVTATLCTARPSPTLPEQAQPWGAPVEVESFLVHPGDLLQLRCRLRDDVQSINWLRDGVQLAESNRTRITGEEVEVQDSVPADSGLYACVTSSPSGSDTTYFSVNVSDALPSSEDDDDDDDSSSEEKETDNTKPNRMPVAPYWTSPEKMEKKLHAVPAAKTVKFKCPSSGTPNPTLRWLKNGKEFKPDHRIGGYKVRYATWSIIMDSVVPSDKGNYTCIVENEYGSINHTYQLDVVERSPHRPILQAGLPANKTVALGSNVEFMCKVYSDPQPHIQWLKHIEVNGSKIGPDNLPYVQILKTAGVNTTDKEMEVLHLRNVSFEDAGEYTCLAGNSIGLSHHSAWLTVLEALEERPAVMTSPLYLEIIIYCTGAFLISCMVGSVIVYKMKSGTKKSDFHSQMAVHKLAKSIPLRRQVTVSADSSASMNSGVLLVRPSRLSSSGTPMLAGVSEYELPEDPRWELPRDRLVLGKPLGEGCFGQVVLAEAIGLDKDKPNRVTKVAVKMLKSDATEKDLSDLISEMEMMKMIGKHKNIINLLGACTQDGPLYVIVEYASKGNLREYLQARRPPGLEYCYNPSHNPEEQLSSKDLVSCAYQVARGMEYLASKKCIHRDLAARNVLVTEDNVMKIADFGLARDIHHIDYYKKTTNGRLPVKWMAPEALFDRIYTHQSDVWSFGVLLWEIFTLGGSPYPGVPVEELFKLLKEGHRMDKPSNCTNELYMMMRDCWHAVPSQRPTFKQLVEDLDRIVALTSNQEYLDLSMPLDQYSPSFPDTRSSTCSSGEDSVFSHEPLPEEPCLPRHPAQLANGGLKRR

With `COc1ccc(Nc2cc3c(cn2)cc(-c2c(Cl)cccc2Cl)c(=O)n3C)cc1`, the IC50 was determined as 2200 nM in test [1] and 6800 nM in test [2].

As to `CCN(CC)CCCCNc1cc2c(cn1)cc(-c1c(Cl)cccc1Cl)c(=O)n2C`, the values for the IC50 in test [1] and in test [2] were 80 nM and 2400 nM, respectively.

For the compound `CN1CCN(CCCCNc2cc3c(cn2)cc(-c2c(Cl)cccc2Cl)c(=O)n3C)CC1`, the IC50 was 1600 nM in test [3], 1100 nM in test [2], 2600 nM in test [4] and 2400 nM in test [5].

With `CCN(CC)CCOc1ccc(Nc2ccc3cc(-c4c(Cl)cccc4Cl)c(=O)n(C)c3n2)cc1`, the IC50 in test [1] and in test [2] was over 50000 nM throughout.

For `CCN(CC)CCCOc1ccc(Nc2cc3c(cn2)cc(-c2c(Cl)cccc2Cl)c(=O)n3C)cc1`, the IC50 is 250 nM in test [1] and 360 nM in test [2].

As for `CN1CCN(CCCNc2ncc3cc(-c4c(Cl)cccc4Cl)c(=O)n(C)c3n2)CC1`, the IC50 in test [3] came out at 15000 nM; in test [4], 7500 nM; in test [5], 2500 nM; in test [6], 150 nM.

For the compound `Cn1c(=O)c(-c2c(Cl)cccc2Cl)cc2cnc(Nc3ccccc3)nc21`, half-maximal inhibition in test [6] (IC50) required 20 nM.

For `Cn1c(=O)c(-c2c(Cl)cccc2Cl)cc2cnc(NCCCN3CCOCC3)cc21`, the IC50 in test [2] stood at 5800 nM.

As for `CCN(CC)CCCOc1ccc(Nc2cc3nc(O)c(-c4c(Cl)cccc4Cl)cc3cn2)cc1`, the results for the IC50 in test [1] and in test [2] were 440 nM and 790 nM, respectively.

As for `CCN(CC)CCCNc1ccc2cc(-c3c(Cl)cccc3Cl)c(=O)n(C)c2n1`, the IC50 in test [1] and in test [2] was over 50000 nM in each case.

Regarding `CCN(CC)CCCNc1cc2c(cn1)cc(-c1c(Cl)cccc1Cl)c(=O)n2C`, the values for the IC50 in test [1] and in test [2] were 150 nM and 4600 nM, respectively.

As to `CN1CCN(CCCNc2ccc3cc(-c4c(Cl)cccc4Cl)c(=O)n(C)c3n2)CC1`, the IC50 in test [1] and in test [2] was over 50000 nM each time.

As for `CCN(CC)C(=O)c1ccc(Nc2cc3c(cn2)cc(-c2c(Cl)cccc2Cl)c(=O)n3C)cc1`, the results for the IC50 in test [1] and in test [2] were 1900 nM and 16000 nM, respectively.

In the case of `Cn1c(=O)c(-c2c(Cl)cccc2Cl)cc2ccc(Nc3ccccc3)nc21`, the IC50 in test [1] and in test [2] was over 50000 nM in each case.

Consider `Cn1c(=O)c(-c2c(Cl)cccc2Cl)cc2cnc(Nc3ccc(N4CCOCC4)cc3)nc21`, for which the concentration for half-maximal inhibition (IC50) came to 100 nM in test [1]; 200 nM in test [3]; 640 nM in test [2]; 170 nM in test [4]; 1500 nM in test [5].

Consider `CCN(CC)CCCCCNc1cc2c(cn1)cc(-c1c(Cl)cccc1Cl)c(=O)n2C`, for which the IC50 in test [1] is 80 nM; in test [2], 740 nM.

As to `CNc1ncc2cc(-c3c(Cl)cccc3Cl)c(=O)n(C)c2n1`, the IC50 in test [3] is 4100 nM; in test [4], 5000 nM; in test [5], 7800 nM; in test [6], 750 nM.

Regarding `CCN(CC)CCNc1ncc2cc(-c3c(Cl)cccc3Cl)c(=O)n(C)c2n1`, the IC50 in test [1] and in test [2] was over 50000 nM in each case.

As for `Cn1c(=O)c(-c2c(Cl)cccc2Cl)cc2cnc(Nc3ccc(N4CCOCC4)cc3)cc21`, the IC50 worked out at 8700 nM in test [1] and 2800 nM in test [2].

As to `CCN(CC)C(=O)c1ccc(Nc2ncc3cc(-c4c(Cl)cccc4Cl)c(=O)n(C)c3n2)cc1`, the figures for the IC50 in test [1] and in test [2] were 180 nM and 290 nM, respectively.

`Cn1c(=O)c(-c2c(Cl)cccc2Cl)cc2ccc(N)nc21`: the IC50 in test [1] and in test [2] was over 50000 nM throughout.

For the compound `Cn1c(=O)c(-c2c(Cl)cccc2Cl)cc2cnc(Nc3ccncc3)cc21`, the IC50 in test [1] worked out at 3500 nM; in test [3] it was 3700 nM; in test [2] it was 6900 nM; in test [4], 8700 nM; in test [5], 7300 nM.

Turning to `CNc1cc2c(cn1)cc(-c1c(Cl)cccc1Cl)c(=O)n2C`, the IC50 in test [1] was found to be 210 nM; in test [3] it was 2800 nM; in test [2], 8000 nM; in test [5], 1700 nM.

Take `CN1CCN(CCCNc2cc3nc(O)c(-c4c(Cl)cccc4Cl)cc3cn2)CC1`: the IC50 in test [1] is 72 nM; in test [2] it was 1400 nM.

`Cn1c(=O)c(-c2c(Cl)cccc2Cl)cc2cnc(NCCCn3ccnc3)cc21` gave an IC50 in test [2] of 3200 nM.

In test [6], `COc1ccc(Nc2ncc3cc(-c4c(Cl)cccc4Cl)c(=O)n(C)c3n2)cc1` registered an IC50 of 20 nM.

Compound `CN1CCN(CCCOc2ccc(Nc3cc4c(cn3)cc(-c3c(Cl)cccc3Cl)c(=O)n4C)cc2)CC1` came in with an IC50 in test [2] of 900 nM.

As to `Cn1c(=O)c(-c2c(Cl)cccc2Cl)cc2cnc(Nc3ccncc3)nc21`, the results for the IC50 in test [3], in test [5] and in test [6] were 140 nM, 16000 nM and 10 nM, respectively.

As to `CN(C)c1cc2c(cn1)cc(-c1c(Cl)cccc1Cl)c(=O)n2C`, the IC50 in test [1] and in test [2] was over 50000 nM throughout.

Take `Cn1c(=O)c(-c2c(Cl)cccc2Cl)cc2cnc(Nc3ccccc3)cc21`: the IC50 in test [1] came out at 2200 nM; in test [2] it was 1400 nM.

The compound `Cn1c(=O)c(-c2c(Cl)cccc2Cl)cc2cnc(N)nc21` had an IC50 in test [4] of 2600 nM.

As to `CCN(CC)CCCCNc1cc2nc(O)c(-c3c(Cl)cccc3Cl)cc2cn1`, the IC50 in test [1] came to 170 nM; in test [2], 1100 nM.

`CN1CCN(CCOc2ccc(Nc3cc4c(cn3)cc(-c3c(Cl)cccc3Cl)c(=O)n4C)cc2)CC1` displayed a half-inhibitory concentration (IC50) in test [2] of 260 nM.

As to `CN1CCN(CCCCNc2ncc3cc(-c4c(Cl)cccc4Cl)c(=O)n(C)c3n2)CC1`, the half-inhibitory concentration (IC50) in test [4] and in test [5] was over 25000 nM in each case.

On to `COc1ccc(Nc2ccc3cc(-c4c(Cl)cccc4Cl)c(=O)n(C)c3n2)cc1`, for which the IC50 in test [1] and in test [2] was over 50000 nM in each case.

With `CCN(CC)CCNc1cc2c(cn1)cc(-c1c(Cl)cccc1Cl)c(=O)n2C`, the IC50 in test [1] was 33000 nM; in test [2], over 50000 nM.

In turn, `CN1CCN(CCCCCNc2ncc3cc(-c4c(Cl)cccc4Cl)c(=O)n(C)c3n2)CC1` yielded an IC50 in test [6] of 60 nM.

As to `CCN(CC)CCOc1ccc(Nc2cc3c(cn2)cc(-c2c(Cl)cccc2Cl)c(=O)n3C)cc1`, the IC50 in test [3] turned out to be 750 nM; in test [2], 100 nM; in test [4] it was 6700 nM; in test [5], 2800 nM.

`Cn1c(=O)c(-c2c(Cl)cccc2Cl)cc2cnc(N)cc21`: the half-maximal inhibitory concentration (IC50) was found to be 380 nM in test [1], 1900 nM in test [3], 3600 nM in test [2] and 2200 nM in test [5].

For `CN1CCN(c2ccc(Nc3cc4c(cn3)cc(-c3c(Cl)cccc3Cl)c(=O)n4C)cc2)CC1`, the values for the IC50 in test [3], in test [4] and in test [5] were 830 nM, 4300 nM and 2100 nM, respectively.

With `CN1CCN(c2ccc(Nc3ncc4cc(-c5c(Cl)cccc5Cl)c(=O)n(C)c4n3)cc2)CC1`, the IC50 in test [3] came to 240 nM; in test [4], 120 nM; in test [5], 240 nM.

Take `CCN(CC)CCOc1ccc(Nc2ncc3cc(-c4c(Cl)cccc4Cl)c(=O)n(C)c3n2)cc1` [PD-0166285]: the IC50 amounted to 280 nM in test [3], 270 nM in test [4] and 420 nM in test [5].

In the case of `CN1CCN(CCCNc2cc3c(cn2)cc(-c2c(Cl)cccc2Cl)c(=O)n3C)CC1`, the concentration for half-maximal inhibition (IC50) in test [1] was 170 nM; in test [3] it was 2200 nM; in test [2], 2800 nM; in test [4], 7600 nM; in test [5], 2800 nM.

In the case of `CN1CCN(CCCCCNc2cc3c(cn2)cc(-c2c(Cl)cccc2Cl)c(=O)n3C)CC1`, the IC50 in test [2] was 9900 nM.
